Results taken from US9375404B2 (Duchesnay Inc., priority 2012, dated 2016).

Assay: clinical
Details: human, in vivo
Method: Data are from bioavailability studies in healthy volunteers. 5 mg: 12 healthy men, 20 mg: 42 healthy women, 25 mg: 12 healthy women, 40 mg: 18 healthy women;

CN(C)CCOC(C)(c1ccccc1)c1ccccn1 (centres unmarked) [doxylamine, reference compound]
half-life (half-life): ~12 h

Cc1ncc(CO)c(C=O)c1O [pyridoxal]
bioavailability at steady-state: significant bioavailability increases
change in Cmax and AUC: significant increase
change in T1/2: significant lengthening
dose vs. Cmax relationship (linearity of pharmacokinetics): increase more than expected

Cc1ncc(CO)c(CO)c1O [pyridoxine, reference compound]
amount unchanged in blood: about 1%
availability with increasing dose: availability is not increased
dose vs. Cmax relationship (linearity of pharmacokinetics): Cmax increases less than expected
inter subject and inter study variations: significantly higher
metabolism: rapidly metabolized

Cc1ncc(COP(=O)(O)O)c(C=O)c1O [PLP, pyridoxal 5-phosphate]
availability among pyridoxine metabolites: most available active metabolite
dose vs. Cmax relationship (linearity of pharmacokinetics): increase more than expected
half-life: 60 h
persistence in the systemic circulation: remaining in the systemic circulation the longest
